Tests used:
[1] = molecular target: VHL Elongin B/C complex (Homo sapiens (Human), UniProt P40337); experiment: Fluorescence Polarization (FP) VHL Binding Assay; settings: VHL binding, FP assay; geometric mean where more than one measurement
Summary of the method: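 Readout is polarization of a TAMRA-coupled VHL ligand (1.67 nM final) displaced from the VHL(E55-D213)/Elongin B/C complex (2.64 nM final) after 1 h incubation at room temperature in pH 8.0 Tris buffer with 1% DMSO. Data normalized to no-VHL and compound-free controls, with compound fluorescence subtracted, and fitted by four-parameter curve for IC50.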

[2] = molecular target: NanoLuc VHL fusion protein (Homo sapiens (Human), UniProt P40337); experiment: VHL HEK-293 BRET Assay (NanoBRET Target Engagement); format: cell-based; settings: geometric mean where more than one measurement
Summary of the method: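 HEK293 cells stably expressing NanoLuc-VHL, 2 h with compound titration and 1 uM final tracer, then Nano-Glo substrate plus extracellular NanoLuc inhibitor. BRET ratio 610/460 nm, background-corrected with no-tracer wells, normalised to DMSO and 10 uM unlabeled VHL antagonist controls; IC50 by four-parameter fit.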

[3] = test system: MYC expression; experiment: Inhibition of MYC expression in MV-4-11 cells; format: cell-based; settings: 4 h; for IC50: QuantiGene 2.0, geometric mean; for Maximum Inhibition (%): maximum inhibition of MYC expression
Method: Pharmacologic inhibition of MYC is achievable through targeting BET bromodomains through small molecule binder or degrader mechanisms. Such inhibitors may have clinical utility given the widespread pathogenetic role of MYC in cancer. See, e.g., Mertz J, et al., “Targeting MYC dependence in cancer by inhibiting BET bromodomains,” (2011) Proc. Natl. Acad. Sci. USA, Vol. 108 (40), pp. 16669-16674.
To determine the inhibition of MYC expression, MV-4-11 cells (ATCC) were plated at 10,000 cells per well in 96-well plates in RPMI1640 media supplemented with 10% fetal bovine serum and 2 mM L-glutamine. Test compounds diluted in DMSO were transferred to the cell plates, keeping final DMSO concentration consistent at 0.1%, and incubated for 4 h at 37° C. Lysis and analysis for MYC expression were carried out using QuantiGene 2.0 reagents (Affymetrix/eBioscience, probe set cat #SA-50182) and following the vendor's instructions. Luminescence was read using an EnVision plate reader (PerkinElmer) and IC50s generated in Genedata Screener using a 4-parameter non-linear regression fit.
Effective degraders will surpass this and inhibit >95% of MYC, thus following the maximum inhibition within this assay provides valuable SAR. Where more than one measurement was performed for the same assay, the value reported is the geometric mean of all values.

Sequence of VHL Elongin B/C complex (P40337 whole entry, looked up): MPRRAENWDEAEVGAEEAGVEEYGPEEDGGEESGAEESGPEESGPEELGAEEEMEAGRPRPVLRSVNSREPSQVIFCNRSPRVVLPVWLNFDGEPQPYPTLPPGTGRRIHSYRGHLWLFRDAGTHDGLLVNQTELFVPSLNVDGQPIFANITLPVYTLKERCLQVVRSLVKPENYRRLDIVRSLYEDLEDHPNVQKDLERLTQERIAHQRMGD
Sequence of VHL Elongin B/C complex (Q15370 whole entry partner, looked up): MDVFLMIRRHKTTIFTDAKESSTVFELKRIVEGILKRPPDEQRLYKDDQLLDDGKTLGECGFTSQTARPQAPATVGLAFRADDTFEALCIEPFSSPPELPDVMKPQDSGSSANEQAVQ
Sequence of VHL Elongin B/C complex (Q15369 whole entry partner, looked up): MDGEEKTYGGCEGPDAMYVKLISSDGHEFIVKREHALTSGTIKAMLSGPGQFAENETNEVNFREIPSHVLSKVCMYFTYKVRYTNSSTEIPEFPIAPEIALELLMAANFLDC
Sequence of NanoLuc VHL fusion protein (P40337 whole entry, looked up, the tested form may be a part): as the sequence (P40337 whole entry, looked up) above
Sequence of NanoLuc VHL fusion protein (Q15370 whole entry partner, looked up, the tested form may be a part): as the sequence (Q15370 whole entry partner, looked up) above
Sequence of NanoLuc VHL fusion protein (Q15369 whole entry partner, looked up, the tested form may be a part): as the sequence (Q15369 whole entry partner, looked up) above

SMILES	IC50 [1] [µM]	IC50 [2] [µM]	IC50 [3] [nM]	Maximum Inhibition (%) [3] [%]
Cc1ncsc1-c1ccc([C@]2(C)NC(C3C[C@@H](O)CN3C(=O)[C@@H](NC(=O)CCCCCCCCCCNC(=O)c3cc4c(cc3CS(C)(=O)=O)-c3cn(C)c(=O)c5[nH]cc(c35)CN4c3ncc(F)cc3F)C(C)(C)C)=NC2=O)cc1 (single isomer, unassigned) [Example 1005.1]	255	64.6		
Cc1ncsc1-c1ccc([C@]2(C)NC(C3C[C@@H](O)CN3C(=O)C(c3cc(OCCCCCNC(=O)c4cc5c(cc4CS(C)(=O)=O)-c4cn(C)c(=O)c6[nH]cc(c46)CN5c4ncc(F)cc4F)no3)C(C)C)=NC2=O)cc1 (single isomer, unassigned) [Example 1001.1]	16.9		17.4	82.3
Cc1ncsc1-c1ccc([C@]2(C)NC(C3C[C@@H](O)CN3C(=O)C(c3cc(OCCCCCNC(=O)c4cc5c(cc4CS(C)(=O)=O)-c4cn(C)c(=O)c6[nH]cc(c46)CN5c4ncc(F)cc4F)no3)C(C)C)=NC2=O)cc1 (single isomer, unassigned) [Example 1001.2]	0.795		1.71	98.4
Cc1ncsc1-c1ccc([C@]2(C)NC(C3C[C@@H](O)CN3C(=O)C(c3cc(OCCCCCNC(=O)c4cc5c(cc4CS(C)(=O)=O)-c4cn(C)c(=O)c6[nH]cc(c46)CN5c4ncc(F)cc4F)no3)C(C)C)=NC2=O)cc1 (single isomer, unassigned) [Example 1001.3]	> 100		27.4	79.2

— US11242344B2, “(4-hydroxypyrrolidin-2-yl)-heterocyclic compounds and methods of use thereof” (Genentech, Inc., priority 2017, dated 2022)
